Test results reported in ChEMBL document CHEMBL1146908, “Synthesis of 16-mercaptohexadecylphosphocholine, a miltefosine analog with leishmanicidal activity” (2006).

Assays:
Format in all cases: functional
Settings in all cases: read-out: LD50 (the source's name)
Leishmania donovani [1] = test: Antileishmanial activity against Leishmania donovani promastigotes by MTT assay
Leishmania mexicana [2] = test: Antileishmanial activity against miltefosine-resistant Leishmania pifanoi axenic amastigotes by MTT assay
Leishmania mexicana [3] = test: Antileishmanial activity against Leishmania pifanoi axenic amastigotes by MTT assay
Leishmania donovani [4] = test: Antileishmanial activity against miltefosine-resistant Leishmania donovani promastigotes by MTT assay

SMILES | LC50 (Leishmania donovani [1]) | LC50 (Leishmania mexicana [2]) | LC50 (Leishmania mexicana [3]) | LC50 (Leishmania donovani [4])
C[N+](C)(C)CCOP(=O)([O-])OCCCCCCCCCCCCCCCCS | 5.1 µM | > 50 µM | 5.5 µM | > 50 µM
CCCCCCCCCCCCCCCCOP(=O)([O-])OCC[N+](C)(C)C [MILTEFOSINE] | 5.3 µM | > 50 µM | 5 µM | > 50 µM
